From patent EP4043466B1, “PRC2 INHIBITORS” (Mirati Therapeutics, Inc., priority 2018, dated 2019)

What was measured:
[1] = tested on: Karpas 422 cells; experiment: Karpas 422 cell viability, CTG (Cell Titre Glo) assay; format: cell-based, human; conditions: Homo sapiens; Inhibition of proliferation of Karpas 422 cells (EZH2 Y641N); viability measured Day 4, Day 7 or Day 11, time point of the tabulated values not stated
Method: Karpas 422 cell line is a human B cell non-Hodgkin's lymphoma cell line established from a patient having DLBCL. This EZH2 heterozygotic cell line expresses a mutant form of EZH2 enzyme (Y641N) that increases histone H3 methylation and this mutation has been implicated in the tumorgenesis of lymphomas, such as DLBCL.
Karpas 422 cells (PHE cat no., 06101702) were cultured in RPMI medium supplemented with 20% fetal bovine serum and 1% penicillin/1% streptomycin and plated at a density of 1000 cells/90 µl/well in 96 well white assay plates. A dose response curve for compounds of the present invention was determined by adding a 10µl aliquot of stock solutions of varying concentrations of compounds to the same medium in each well, over a concentration range of 10µM using 3-fold dilutions to a final concentration of 1.5nM. The plates were incubated at 37° C for predetermined time periods, Day 4, Day 7, or Day 11, and the viability of the cells was measured using a CTG assay kit (Cell Titre Glo; Promega cat.no G7573) on Day 4 and Day 7 in accordance with the manufacturer's instructions.
For the viability assay for the Day 11 plates, the plates were subjected to centrifugation at 1100 rpm for five minutes on Day 7 and the supernatant was removed by aspiration. The cells were resuspended in 90 µl aliquot of the appropriate growth medium lacking the compound followed by addition of 10 µl of a 10X stock of the same compound at the same concentration. The viability of the Day 11 cells was measured using the CTG assay kit described above in accordance with the manufacturer's instructions. The IC50 values for each compound at each predetermined time point were calculated using Graph pad PRISM software and the results are shown in Table 15. A = ≤250 nM; B = […] - ≤500 nM; and C = >500 nM.

[2] = target: purified human, His-tagged PRC2 complex (Homo sapiens, UniProt O75530+Q15910); experiment: Hot Spot HMT assay: inhibition of PRC2 enzymatic activity (transfer of tritiated methyl from SAM to core histone, filter binding); format: biochemical; conditions: Inhibition of PRC2-mediated enzymatic activity; 10 nM PRC2 complex, 0.05 mg/ml core histone H3, 1 uM 3H-SAM, 1 hr at 30°C
Sequence of purified human, His-tagged PRC2 complex (Q15910 whole entry): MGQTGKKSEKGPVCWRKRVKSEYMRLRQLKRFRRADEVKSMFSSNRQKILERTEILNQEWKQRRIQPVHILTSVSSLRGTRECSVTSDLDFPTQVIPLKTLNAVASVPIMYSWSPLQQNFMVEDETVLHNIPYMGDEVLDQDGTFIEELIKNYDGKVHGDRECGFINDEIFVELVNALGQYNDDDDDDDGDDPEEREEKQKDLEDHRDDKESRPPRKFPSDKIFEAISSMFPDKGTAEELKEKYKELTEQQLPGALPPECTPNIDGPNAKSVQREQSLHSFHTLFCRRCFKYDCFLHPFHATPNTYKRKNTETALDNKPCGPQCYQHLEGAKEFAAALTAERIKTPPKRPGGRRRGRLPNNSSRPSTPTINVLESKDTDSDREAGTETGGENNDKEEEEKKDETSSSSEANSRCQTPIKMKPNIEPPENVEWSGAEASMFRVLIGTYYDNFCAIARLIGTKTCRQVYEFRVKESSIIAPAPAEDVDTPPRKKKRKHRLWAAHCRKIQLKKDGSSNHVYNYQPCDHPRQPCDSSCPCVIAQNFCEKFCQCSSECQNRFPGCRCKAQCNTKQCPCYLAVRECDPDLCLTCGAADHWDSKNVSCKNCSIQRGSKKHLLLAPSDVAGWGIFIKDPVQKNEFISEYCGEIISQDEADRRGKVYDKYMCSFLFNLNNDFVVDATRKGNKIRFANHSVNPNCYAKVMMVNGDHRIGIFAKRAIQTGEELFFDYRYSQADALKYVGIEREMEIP
Sequence of purified human, His-tagged PRC2 complex (O75530 whole entry): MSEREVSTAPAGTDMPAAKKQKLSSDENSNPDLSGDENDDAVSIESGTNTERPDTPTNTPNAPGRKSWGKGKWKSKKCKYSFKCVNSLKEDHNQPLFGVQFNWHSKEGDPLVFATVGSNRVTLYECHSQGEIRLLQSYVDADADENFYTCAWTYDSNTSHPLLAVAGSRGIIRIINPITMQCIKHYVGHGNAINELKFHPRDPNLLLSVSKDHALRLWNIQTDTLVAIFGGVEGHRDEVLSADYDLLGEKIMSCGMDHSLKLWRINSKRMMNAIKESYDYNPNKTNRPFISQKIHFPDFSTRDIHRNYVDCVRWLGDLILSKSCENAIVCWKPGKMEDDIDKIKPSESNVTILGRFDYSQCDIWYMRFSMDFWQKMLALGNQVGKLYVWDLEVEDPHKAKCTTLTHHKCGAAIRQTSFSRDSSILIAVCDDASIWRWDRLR
Sequence of purified human, His-tagged PRC2 complex (Q15022 whole entry partner): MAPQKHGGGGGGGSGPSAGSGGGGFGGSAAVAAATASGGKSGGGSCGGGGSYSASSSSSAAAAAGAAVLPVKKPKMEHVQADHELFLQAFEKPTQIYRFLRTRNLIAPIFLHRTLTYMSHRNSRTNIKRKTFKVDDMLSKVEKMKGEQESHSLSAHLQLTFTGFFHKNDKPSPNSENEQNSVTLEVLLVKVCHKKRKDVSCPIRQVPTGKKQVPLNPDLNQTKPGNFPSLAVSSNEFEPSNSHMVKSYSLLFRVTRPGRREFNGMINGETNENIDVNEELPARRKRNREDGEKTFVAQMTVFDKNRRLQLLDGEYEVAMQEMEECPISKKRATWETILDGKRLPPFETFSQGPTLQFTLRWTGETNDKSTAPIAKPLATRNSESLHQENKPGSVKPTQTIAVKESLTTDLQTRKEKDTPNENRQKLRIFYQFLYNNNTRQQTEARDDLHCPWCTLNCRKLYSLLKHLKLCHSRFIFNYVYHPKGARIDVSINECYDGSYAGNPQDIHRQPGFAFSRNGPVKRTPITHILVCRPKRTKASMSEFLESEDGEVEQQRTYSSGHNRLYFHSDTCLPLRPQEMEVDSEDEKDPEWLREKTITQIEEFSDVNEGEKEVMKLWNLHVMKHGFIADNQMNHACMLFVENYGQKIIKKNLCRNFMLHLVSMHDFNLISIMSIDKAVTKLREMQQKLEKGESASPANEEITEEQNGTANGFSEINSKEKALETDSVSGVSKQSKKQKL
Sequence of purified human, His-tagged PRC2 complex (Q6ZN18 whole entry partner): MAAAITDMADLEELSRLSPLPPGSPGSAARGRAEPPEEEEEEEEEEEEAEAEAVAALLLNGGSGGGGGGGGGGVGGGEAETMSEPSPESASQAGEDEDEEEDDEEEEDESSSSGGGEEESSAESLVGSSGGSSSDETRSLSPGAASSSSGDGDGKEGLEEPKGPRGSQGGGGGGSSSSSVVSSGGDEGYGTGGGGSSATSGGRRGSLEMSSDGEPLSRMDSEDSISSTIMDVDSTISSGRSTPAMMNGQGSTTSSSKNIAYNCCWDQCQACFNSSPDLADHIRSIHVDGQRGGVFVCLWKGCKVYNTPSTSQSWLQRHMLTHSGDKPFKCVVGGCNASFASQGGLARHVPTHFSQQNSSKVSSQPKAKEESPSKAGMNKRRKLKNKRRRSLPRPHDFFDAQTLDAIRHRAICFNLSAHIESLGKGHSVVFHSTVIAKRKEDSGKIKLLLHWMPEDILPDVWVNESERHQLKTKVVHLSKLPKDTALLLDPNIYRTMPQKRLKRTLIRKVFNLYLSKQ
Sequence of purified human, His-tagged PRC2 complex (Q09028 whole entry partner): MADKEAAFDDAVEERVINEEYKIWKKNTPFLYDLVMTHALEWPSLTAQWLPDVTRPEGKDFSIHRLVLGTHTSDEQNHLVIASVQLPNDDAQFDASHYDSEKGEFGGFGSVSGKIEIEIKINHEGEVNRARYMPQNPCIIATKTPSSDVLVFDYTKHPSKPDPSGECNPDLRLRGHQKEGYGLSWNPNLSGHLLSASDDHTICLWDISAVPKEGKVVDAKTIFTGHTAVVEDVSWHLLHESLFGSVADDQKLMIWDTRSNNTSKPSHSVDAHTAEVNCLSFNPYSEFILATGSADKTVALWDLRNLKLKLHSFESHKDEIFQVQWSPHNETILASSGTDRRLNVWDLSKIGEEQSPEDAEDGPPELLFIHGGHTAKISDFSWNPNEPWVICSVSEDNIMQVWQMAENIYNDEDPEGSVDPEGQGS
Description: The assay uses purified human, His-tagged PRC2 complex, including N-terminal His-tagged EZH2 enzyme, N-terminal Flag-tagged embryonic ectoderm development protein (EED), N-terminal His-tagged suppressor of zeste 12 (SUZ12), N-terminal His-tagged AEBP2, and N-terminal His-tagged RbAp48. In this assay, the transfer of the tritiated methyl group from radiolabeled S-adenosyl methionine (SAM) to purified core histone protein by EZH2 is quantitated after filtration to determine the activity of the core PRC2 complex in the presence and absence of compound.
The initial starting concentration for the serial dilutions of each compound was 1.0 µM. […] SAH (S-(5-adenosyl)-L-homocysteine) was used as a positive control for assay validation.
An aliquot of each serial dilution of test compound was added to deep 384 well plate using Acoustic Technology instrument (Echo 550, LabCyte) containing reaction buffer (50 mM Tris-HCl (pH 8.)), 0.01% Brij35, 1 mM EDTA, 1 mM DTT, 1 mM PMSF and 1% DMSO), 10 nM purified PRC2 complex and 0.05 mg/ml core histone H3 in a 5 µl volume. The reaction was mixed gently and then pre-incubated for 20 min at 30°C. The enzymatic reaction was initiated by adding 1 uM S-Adenosyl-L-[methyl - ^3H]methionine and incubated for 1 hr at 30°C. After 1 hr, the reaction product was detected using a filter binding method and the amount of tritiated H3 core histone was quantitated using a scintillation counter.

Cc1c(-c2cnc(NCc3c(F)ccc4c3CCO4)n3cc(C(N)=O)nc23)cnn1C(C)C [Example 16, 5-(((5-fluoro-2,3-dihydrobenzofuran-4-yl)methyl)amino)-8-(1-isopropyl-5-methyl-1H-pyrazol-4-yl)imidazo[1,2-c]pyrimidine-2-carboxamide]
IC50 [1]: 250 to 500 nM
IC50 [2]: < 100 nM

N#Cc1cn2c(NCc3c(F)ccc4c3CCO4)ncc(-c3cccnc3)c2n1 [Example 100, 5-(((5-fluoro-2,3-dihydrobenzofuran-4-yl)methyl)amino)-8-(pyridin-3-yl)imidazo[1,2-c]pyrimidine-2-carbonitrile]
IC50 [1]: ≤ 250 nM
IC50 [2]: < 100 nM

Cc1ncc(-c2cnc(NCc3c(F)ccc4c3CCO4)n3cc(C#N)nc23)cc1N [Example 129, 8-(5-amino-6-methylpyridin-3-yl)-5-(((5-fluoro-2,3-dihydrobenzofuran-4-yl)methyl)amino)imidazo[1,2-c]pyrimidine-2-carbonitrile]
IC50 [1]: ≤ 250 nM
IC50 [2]: < 100 nM

CS(=O)(=O)c1ccc(-c2cnc(NCc3c(F)ccc4c3CCO4)n3cc(C#N)nc23)cc1 [Example 73, 5-(((5-fluoro-2,3-dihydrobenzofuran-4-yl)methyl)amino)-8-(4-(methylsulfonyl)phenyl)imidazo[1,2-c]pyrimidine-2-carbonitrile]
IC50 [1]: ≤ 250 nM
IC50 [2]: < 100 nM

Cc1cc(CN(C)C)c(F)cc1-c1cnc(NCc2c(F)ccc3c2CCO3)n2cc(C#N)nc12 [Example 84, 8-(4-((dimethylamino)methyl)-5-fluoro-2-methylphenyl)-5-(((5-fluoro-2,3-dihydrobenzofuran-4-yl)methyl)amino)imidazo[1,2-c]pyrimidine-2-carbonitrile]
IC50 [1]: ≤ 250 nM
IC50 [2]: 100 to 500 nM

CC(C)Oc1ccc(-c2cnc(NCc3c(F)ccc4c3CCO4)n3cc(C#N)nc23)cn1 [Example 133, 5-(((5-fluoro-2,3-dihydrobenzofuran-4-yl)methyl)amino)-8-(6-isopropoxypyridin-3-yl)imidazo[1,2-c]pyrimidine-2-carbonitrile]
IC50 [1]: > 500 nM
IC50 [2]: < 100 nM

Cc1nc(N2CCN(C)CC2)ccc1-c1cnc(NCc2c(F)ccc3c2CCO3)n2cc(C#N)nc12 [Example 136, 5-(((5-fluoro-2,3-dihydrobenzofuran-4-yl)methyl)amino)-8-(2-methyl-6-(4-methylpiperazin-1-yl)pyridin-3-yl)imidazo[1,2-c]pyrimidine-2-carbonitrile]
IC50 [1]: ≤ 250 nM
IC50 [2]: 100 to 500 nM

N#Cc1ccc(-c2cnc(NCc3c(F)ccc4c3CCO4)n3cc(C#N)nc23)cn1 [Example 128, 8-(6-cyanopyridin-3-yl)-5-(((5-fluoro-2,3-dihydrobenzofuran-4-yl)methyl)amino)imidazo[1,2-c]pyrimidine-2-carbonitrile]
IC50 [1]: > 500 nM
IC50 [2]: < 100 nM

Cc1cc(-c2cnc(NCc3cccc4c3CCO4)n3cc(C(N)=O)nc23)n(C)n1 [Example 19, 5-(((2,3-dihydrobenzofuran-4-yl)methyl)amino)-8-(1,3-dimethyl-1H-pyrazol-5-yl)imidazo[1,2-c]pyrimidine-2-carboxamide]
IC50 [1]: 250 to 500 nM
IC50 [2]: < 100 nM

CC(C)(O)Cn1cc(-c2cnc(NCc3c(F)ccc4c3CCO4)n3cc(C#N)nc23)cn1 [Example 121, 5-(((5-fluoro-2,3-dihydrobenzofuran-4-yl)methyl)amino)-8-(1-(2-hydroxy-2-methylpropyl)-1H-pyrazol-4-yl)imidazo[1,2-c]pyrimidine-2-carbonitrile]
IC50 [1]: 250 to 500 nM
IC50 [2]: < 100 nM

Cc1cc(-c2cnc(NCc3c(Cl)ccc4c3CCO4)n3cc(C#N)nc23)n(C)n1 [Example 29, 5-(((5-chloro-2,3-dihydrobenzofuran-4-yl)methyl)amino)-8-(1,3-dimethyl-1H-pyrazol-5-yl)imidazo[1,2-c]pyrimidine-2-carbonitrile]
IC50 [1]: > 500 nM
IC50 [2]: > 500 nM

N#Cc1cn2c(NCc3c(F)ccc4c3CCO4)ncc(-c3ccc(C4CC4)nc3)c2n1 [Example 116, 8-(6-cyclopropylpyridin-3-yl)-5-(((5-fluoro-2,3-dihydrobenzofuran-4-yl)methyl)amino)imidazo[1,2-c]pyrimidine-2-carbonitrile]
IC50 [1]: ≤ 250 nM
IC50 [2]: < 100 nM

Cc1ncccc1-c1cnc(NCc2c(F)ccc3occc23)n2cc(C(N)=O)nc12 [Example 12, 5-(((5-fluorobenzofuran-4-yl)methyl)amino)-8-(2-methylpyridin-3-yl)imidazo[1,2-c]pyrimidine-2-carboxamide]
IC50 [1]: > 500 nM
IC50 [2]: < 100 nM

Cc1nc(C2CC2)ncc1-c1cnc(NCc2c(F)ccc3c2CCO3)n2cc(C(=O)O)nc12 [Example 7, 8-(2-cyclopropyl-4-methylpyrimidin-5-yl)-5-(((5-fluoro-2,3-dihydrobenzofuran-4-yl)methyl)amino)imidazo[1,2-c]pyrimidine-2-carboxylic acid]
IC50 [1]: > 500 nM
IC50 [2]: < 100 nM

CN(C)Cc1ccc(-c2cnc(NCc3c(F)ccc4c3CCO4)n3cc(C#N)nc23)c(F)c1F [Example 37, 8-(4-((dimethylamino)methyl)-2,3-difluorophenyl)-5-(((5-fluoro-2,3-dihydrobenzofuran-4-yl)methyl)amino)imidazo[1,2-c]pyrimidine-2-carbonitrile]
IC50 [1]: ≤ 250 nM
IC50 [2]: < 100 nM

CN(C)Cc1c(F)cc(-c2cnc(NCc3c(F)ccc4c3CCO4)n3cc(C#N)nc23)cc1F [Example 149, 8-(4-((dimethylamino)methyl)-3,5-difluorophenyl)-5-(((5-fluoro-2,3-dihydrobenzofuran-4-yl)methyl)amino)imidazo[1,2-c]pyrimidine-2-carbonitrile]
IC50 [1]: ≤ 250 nM
IC50 [2]: 100 to 500 nM

N#Cc1cn2c(NCc3c(F)ccc4c3CCO4)ncc(-c3cncc(C(F)(F)F)c3)c2n1 [Example 132, 5-(((5-fluoro-2,3-dihydrobenzofuran-4-yl)methyl)amino)-8-(5-(trifluoromethyl)pyridin-3-yl)imidazo[1,2-c]pyrimidine-2-carbonitrile]
IC50 [1]: 250 to 500 nM
IC50 [2]: > 500 nM

N#Cc1cn2c(NCc3c(F)ccc4c3CCO4)ncc(-c3ccc(CO)nc3)c2n1 [Example 147, 5-(((5-fluoro-2,3-dihydrobenzofuran-4-yl)methyl)amino)-8-(6-(hydroxymethyl)pyridin-3-yl)imidazo[1,2-c]pyrimidine-2-carbonitrile]
IC50 [1]: ≤ 250 nM
IC50 [2]: 100 to 500 nM

COCCn1cc(-c2cnc(NCc3c(F)ccc4c3CCO4)n3cc(C#N)nc23)cn1 [Example 117, 5-(((5-fluoro-2,3-dihydrobenzofuran-4-yl)methyl)amino)-8-(1-(2-methoxyethyl)-1H-pyrazol-4-yl)imidazo[1,2-c]pyrimidine-2-carbonitrile]
IC50 [1]: ≤ 250 nM
IC50 [2]: 100 to 500 nM

Cc1ncncc1-c1cnc(NCc2c(F)ccc3c2CCO3)n2cc(C#N)nc12 [Example 110, 5-(((5-fluoro-2,3-dihydrobenzofuran-4-yl)methyl)amino)-8-(4-methylpyrimidin-5-yl)imidazo[1,2-c]pyrimidine-2-carbonitrile]
IC50 [1]: ≤ 250 nM
IC50 [2]: < 100 nM

COc1cc(-c2cnc(NCc3c(F)ccc4c3CCO4)n3cc(C#N)nc23)ccn1 [Example 113, 5-(((5-fluoro-2,3-dihydrobenzofuran-4-yl)methyl)amino)-8-(2-methoxypyridin-4-yl)imidazo[1,2-c]pyrimidine-2-carbonitrile]
IC50 [1]: > 500 nM
IC50 [2]: < 100 nM
